# In PubChem BioAssay AID679 (PCMD, 2007):
# Activity calls are given as the source filed them. No rule for the calls is given here.
# Molecular target: Coagulation factor XI (Homo sapiens) (UniProt P03951)
# Experiment: human FXIa inhibitor potency, dose response, biochemical (AID 679)
# Conditions: purified human factor XIa enzymatic activity assay
# Coagulation factor XI (Homo sapiens), sequence (P03951 19-387 limits assumed): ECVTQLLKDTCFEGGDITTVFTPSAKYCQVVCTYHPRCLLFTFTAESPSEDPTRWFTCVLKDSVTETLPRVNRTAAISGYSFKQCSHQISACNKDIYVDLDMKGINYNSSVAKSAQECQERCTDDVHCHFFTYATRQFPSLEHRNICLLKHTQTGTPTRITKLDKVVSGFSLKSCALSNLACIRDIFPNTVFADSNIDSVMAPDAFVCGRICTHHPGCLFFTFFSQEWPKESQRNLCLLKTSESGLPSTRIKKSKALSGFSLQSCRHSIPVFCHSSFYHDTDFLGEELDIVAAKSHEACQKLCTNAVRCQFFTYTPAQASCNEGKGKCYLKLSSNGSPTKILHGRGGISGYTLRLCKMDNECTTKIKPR
# Coagulation factor XI (Homo sapiens), sequence (P03951 388-625 limits assumed): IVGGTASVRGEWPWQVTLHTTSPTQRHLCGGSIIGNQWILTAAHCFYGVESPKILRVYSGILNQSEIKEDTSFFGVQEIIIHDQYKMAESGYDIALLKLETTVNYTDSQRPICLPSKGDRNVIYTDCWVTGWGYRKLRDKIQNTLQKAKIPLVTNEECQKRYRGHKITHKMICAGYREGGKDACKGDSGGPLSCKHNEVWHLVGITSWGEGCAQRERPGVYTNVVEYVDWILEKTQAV
row,IC50,Structure (SMILES)
1,> 50 µM (inactive),N#Cc1c(N)nc2c3c(sc(=N)c2c1N)NC(=O)CC3c1ccccc1Cl (stereo not drawn)
2,> 50 µM (inactive),CC1=C(C(=O)OC(C)C)C(c2coc3ccccc3c2=O)C2=C(CCCC2=O)N1 (stereo not drawn)
3,> 50 µM (inactive),COC(=O)c1ccc(NC(=O)CC2C(=O)N(c3ccc(C)cc3)C(=O)N2CC(C)C)cc1 (stereo not drawn)
